From patent publication US12723063B2, “GIPR-agonist compounds” (Eli Lilly and Company, priority 2019, dated 2026)
*1 amine or outer side, *2 acyl side, *3 side chain or, on linkers, in order; H or OH if unused. Where a SMILES comes first, the peptide text is derived from it. Side-chain parts run from the residue outwards. [ ]: non-standard residue; d: D form. The star is where a group is joined. C20 diacid = O=C(O)CCCCCCCCCCCCCCCCCCC(=O)*; C18 diacid = O=C(O)CCCCCCCCCCCCCCCCC(=O)*; αMePhe(2-F) = C[C@](N)(Cc1ccccc1F)C(=O)O; γGlu = O=C(O)[C@H](CCC(=O)[*:2])N[*:1]; 4Pal = N[C@@H](Cc1ccncc1)C(=O)O; αMeL = CC(C)C[C@](C)(N)C(=O)O; Iva = CC[C@](C)(N)C(=O)O; Orn = NCCC[C@H](N)C(=O)O; AEEA = NCCOCCOCC(=O)O; Aib = CC(C)(N)C(=O)O

Molecular target: T1, human GLP-1R (Homo sapiens, UniProt P43220)
T1 construct: expressed in transfected cells; crude membranes
T1 sequence (P43220 24-463): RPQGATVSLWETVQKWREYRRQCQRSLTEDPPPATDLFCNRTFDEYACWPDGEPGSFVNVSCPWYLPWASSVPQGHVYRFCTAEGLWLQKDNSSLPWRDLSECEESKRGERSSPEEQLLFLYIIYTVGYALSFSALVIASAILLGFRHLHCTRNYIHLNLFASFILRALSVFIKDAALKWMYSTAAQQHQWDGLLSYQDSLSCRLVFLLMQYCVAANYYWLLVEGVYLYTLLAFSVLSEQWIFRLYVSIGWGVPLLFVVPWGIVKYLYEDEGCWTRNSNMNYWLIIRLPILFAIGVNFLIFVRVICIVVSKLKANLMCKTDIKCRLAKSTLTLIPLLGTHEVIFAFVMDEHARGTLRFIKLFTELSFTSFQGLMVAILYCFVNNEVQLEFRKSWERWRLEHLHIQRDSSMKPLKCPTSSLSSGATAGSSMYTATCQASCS
Experiment: [125I]-GLP-1 binding, SPA with WGA beads, 0.1% bacitracin
Details: geometric mean, read-out: hGLP1R Ki
Outline: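 Binding buffer was 25 mM HEPES pH 7.4 with 2.5 mM CaCl2, 1 mM MgCl2, 0.1% (w/v) bacitracin, 0.003% Tween-20 and EDTA-free protease inhibitors. Four-parameter regression gave IC50, converted to Ki (geometric mean, SEM, n independent days).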

SMILES | Ki [nM]
CC[C@H](C)[C@H](NC(=O)[C@H](Cc1ccccc1)NC(=O)[C@@H](NC(=O)CNC(=O)[C@H](CCC(=O)O)NC(=O)C(C)(C)NC(=O)[C@@H](N)Cc1ccc(O)cc1)[C@@H](C)O)C(=O)N[C@@H](CO)C(=O)N[C@@H](CC(=O)O)C(=O)N[C@@H](Cc1ccc(O)cc1)C(=O)N[C@@H](CO)C(=O)N[C@H](C(=O)N[C@@](C)(CC(C)C)C(=O)N[C@@H](CC(C)C)C(=O)N[C@@H](CC(=O)O)C(=O)N[C@@H](CCC(=O)O)C(=O)N[C@@H](CCCCNC(=O)COCCOCCNC(=O)COCCOCCNC(=O)CC[C@H](NC(=O)CCCCCCCCCCCCCCCCCCC(=O)O)C(=O)O)C(=O)N[C@@H](Cc1c[nH]cn1)C(=O)N[C@@H](CCC(N)=O)C(=O)NC(C)(C)C(=O)N[C@@H](CC(=O)O)C(=O)N[C@@H](Cc1ccccc1)C(=O)N[C@H](C(=O)N[C@@H](CCC(=O)O)C(=O)N[C@@H](Cc1ccncc1)C(=O)N[C@@H](CC(C)C)C(=O)N[C@@H](CC(C)C)C(=O)N[C@@H](C)C(=O)NCC(=O)NCC(=O)N1CCC[C@H]1C(=O)N[C@@H](CO)C(=O)N[C@@H](CO)C(=O)NCC(=O)N[C@@H](C)C(=O)N1CCC[C@H]1C(=O)N1CCC[C@H]1C(=O)N1CCC[C@H]1C(=O)N[C@@H](CO)C(N)=O)C(C)C)[C@@H](C)CC [Example 86] | 108
CC[C@H](C)[C@H](NC(=O)[C@H](CO)NC(=O)[C@H](Cc1ccc(O)cc1)NC(=O)[C@H](CC(=O)O)NC(=O)[C@H](CO)NC(=O)[C@@H](NC(=O)[C@](C)(CC)NC(=O)[C@@H](NC(=O)CNC(=O)[C@H](CCC(=O)O)NC(=O)C(C)(C)NC(=O)[C@@H](N)Cc1ccc(O)cc1)[C@@H](C)O)[C@@H](C)CC)C(=O)N[C@@](C)(CC(C)C)C(=O)N[C@@H](CC(C)C)C(=O)N[C@@H](CC(=O)O)C(=O)N[C@@H](CCCN)C(=O)N[C@@H](CCCCNC(=O)COCCOCCNC(=O)COCCOCCNC(=O)CC[C@H](NC(=O)CCCCCCCCCCCCCCCCCCC(=O)O)C(=O)O)C(=O)N[C@@H](Cc1c[nH]cn1)C(=O)N[C@@H](CCC(N)=O)C(=O)NC(C)(C)C(=O)N[C@@H](CC(=O)O)C(=O)N[C@@H](Cc1ccccc1)C(=O)N[C@H](C(=O)N[C@@H](CCC(=O)O)C(=O)N[C@@H](Cc1ccncc1)C(=O)N[C@@H](CC(C)C)C(=O)N[C@@H](CC(C)C)C(=O)N[C@@H](CCC(=O)O)C(=O)N[C@H](C(=O)NCC(=O)N1CCC[C@H]1C(=O)N[C@@H](CO)C(=O)N[C@@H](CO)C(=O)NCC(=O)N[C@@H](C)C(=O)N1CCC[C@H]1C(=O)N1CCC[C@H]1C(=O)N1CCC[C@H]1C(=O)N[C@@H](CO)C(N)=O)[C@@H](C)O)C(C)C [Example 77] (H-Y[Aib]EGT[Iva]ISDYSI[αMeL]LD[Orn]K([AEEA-AEEA-γGlu-C20 diacid])HQ[Aib]DFVE[4Pal]LLETGPSSGAPPPS-NH2) | > 905
CC[C@H](C)[C@H](NC(=O)[C@H](CO)NC(=O)[C@H](Cc1ccc(O)cc1)NC(=O)[C@H](CC(=O)O)NC(=O)[C@H](CO)NC(=O)[C@@H](NC(=O)[C@](C)(Cc1ccccc1F)NC(=O)[C@@H](NC(=O)CNC(=O)[C@H](CCC(=O)O)NC(=O)C(C)(C)NC(=O)[C@@H](N)Cc1ccc(O)cc1)[C@@H](C)O)[C@@H](C)CC)C(=O)N[C@@H](C)C(=O)N[C@@H](CC(C)C)C(=O)N[C@@H](CC(=O)O)C(=O)N[C@@H](CCCCN)C(=O)N[C@H](C(=O)N[C@@H](Cc1c[nH]cn1)C(=O)N[C@@H](CCC(N)=O)C(=O)NC(C)(C)C(=O)N[C@@H](CCC(=O)O)C(=O)N[C@@H](Cc1ccccc1)C(=O)N[C@H](C(=O)N[C@@H](CC(N)=O)C(=O)N[C@@H](Cc1ccc(O)cc1)C(=O)N[C@@H](CCCCNC(=O)COCCOCCNC(=O)COCCOCCNC(=O)CC[C@H](NC(=O)CCCCCCCCCCCCCCCCC(=O)O)C(=O)O)C(=O)N[C@@H](CC(C)C)C(=O)N[C@@H](C)C(=O)NCC(=O)NCC(=O)N1CCC[C@H]1C(=O)N[C@@H](CO)C(=O)N[C@@H](CO)C(=O)NCC(=O)N[C@@H](C)C(=O)N1CCC[C@H]1C(=O)N1CCC[C@H]1C(=O)N1CCC[C@H]1C(=O)N[C@@H](CO)C(N)=O)C(C)C)[C@@H](C)CC [Example 94] (H-Y[Aib]EGT[αMePhe(2-F)]ISDYSIALDKIHQ[Aib]EFVNYK([AEEA-AEEA-γGlu-C18 diacid])LAGGPSSGAPPPS-NH2) | > 909
